For assay [1], the target named is T1, human dopamine D3 receptors (Homo sapiens, UniProt P35462).
T1 construct: expressed in transfected cells; host or cells: CHO
The assay is described as follows: Binding affinity test on human dopamine D3 receptors ([3H]spiperone, CHO membranes). To be noted: for binding affinity (in words): human dopamine D3 receptors. How it is done: For the test, membrane specimens prepared from Chinese hamster ovary (CHO) cells expressing human dopamine D3 receptors were used. To a 50 mM Tris-HCl buffer (pH 7.4) containing 1.4 mM ascorbic acid, 0.001% BSA, and 150 mM NaCl, [^3H] spiperone (final concentration 0.7 nM), the test sample solution and a membrane specimens were added. The reaction solution was allowed to react at 37° C. for 2 hours, then the reaction solution was filtered with a cell harvester, the filtered filter paper was transferred to a measurement vial, a liquid scintillator was added and the receptor bond radioactivity remaining on the filter paper was determined by a liquid scintillation counter.
The following formula was used to calculate the binding inhibition rate: […]
Furthermore, the inhibition constant (Ki) was calculated.

Assay [2] deals with T2, human dopamine D2L receptors (Homo sapiens, UniProt P14416).
T2 construct: expressed in transfected cells; host or cells: CHO
In words: Agonist/antagonist assay, [35S]GTPgammaS binding, human dopamine D2L receptors. The class given is biochemical. To be noted: for EC50 / Emax / IC50: Dopamine D2L; for antagonist activity (in words): human dopamine D2L receptors. As for the experimental part:
(§1) For the tests, membrane specimens prepared from Chinese hamster ovary (CHO-K1) cells expressing human serotonin 1A receptors, Chinese hamster ovary (CHO) cells expressing human dopamine D2L receptors, Chinese hamster ovary (CHO) cells expressing human dopamine D2S receptors and Chinese hamster ovary (CHO) cells expressing human dopamine D3 receptors were used. In the agonist assays, for the serotonin 1A receptors, [^35S] GTPγS (final concentration 0.1 nM), a GDP solution (final concentration 3 μM), the test sample solution and a membrane specimen were added to a 20 mM Hepes-NaOH buffer (pH 7.4) containing 100 mM NaCl, 3 mM MgCl2 and 10 μg/mL saponin and allowed to react at 25° C. for 30 minutes. Further, for the dopamine (D2L, D2S and D3) receptors, [^35S] GTPγS (i.e., final concentration 0.1 nM), a GDP solution (final concentration 3 μM), the test sample solution and a membrane specimen were added to a 20 mM Hepes-NaOH buffer (pH 7.4) containing 100 mM NaCl, 10 mM MgCl2, 1 mM DTT and 1 mM EDTA and allowed to react at 30° C. for 15 minutes (in the case of D2L receptors) or for 30 minutes (in the cases of D2S and D3 receptors). Further, in the antagonist assays, except for adding to the reaction solutions 10 μM 5-carboxamide tryptamine (5-CT) (in the case of serotonin 1A receptors), 3 μM dopamine (in the cases of D2L and D2S receptors), or 0.1 μM dopamine (in the case of D3 receptors), operations were performed similar to the agonistic tests. After the end of the reaction, the reaction solution was filtered with a cell harvester, the filtered filter paper was transferred to a measurement vial, a liquid scintillator was added, and the radioactivity of the [^35S] GTPγS remaining on the filter paper was determined by a liquid scintillation counter. The human serotonin 1A receptor and human dopamine (D2L, D2S, and D3) receptor agonist/antagonist activities of the test sample were expressed as the rates of increase, when making the increase in [^35S] GTPγS bonds due to 10 μM 5-CT (in the case of serotonin 1A receptors), 3 μM dopamine (in the cases of D2L and D2S receptors), or 0.1 μM dopamine (in the case of D3 receptors) 100%. From the bond increasing rate, a regression formula was used to calculate the 50% reaction concentration (EC50) and 50% inhibition concentration (IC50).
For orientation: Binding of GTPγS marks nucleotide exchange on a G protein.

In assay [3] the target is T1, human dopamine D3 receptors. The assay is described as follows: Agonist/antagonist assay, [35S]GTPgammaS binding, human dopamine D3 receptors. It is filed as biochemical. Conditions: for agonist activity (in words) / antagonist activity (in words): human dopamine D3 receptors. How it is done: as §1
The test system of assay [4] is Parkinson's disease model rats. The assay is described as follows: Hyperkinesia of the forelimbs and shortening of rotational behavior duration induced by repeated doses of levodopa. To be noted: for rats that did not exhibit rotational behavior: 5 mg/kg oral. It is filed as in vivo, rat. The text has this: In rats with unilateral nigrostriatal dopamine nerve destruction generally used as Parkinson's disease animal models, it became clear that by administering levodopa by repeated dosage for about 5 weeks, behavior resembling the symptoms of advanced stage Parkinson's disease appeared. That is, in Parkinson's disease model rats prepared in the same way as in Example 4, along with repeated doses of levodopa, abnormal behavior such as involuntary extending of the forelimb or opening or closing of the hand, up-and-down movement of the wrist, choreiform tremor in the forelimb on the opposite side of microinjection of 6-hydroxydopamine was observed (FIG. 3). This abnormal behavior is reported by Steece-Collier et al. (Steece-Collier K. et al., “Embryonic mesencephalic grafts increase levodopa-induced forelimb hyperkinesia in parkinsonian rats”, Movement Disorders, 2003, 18, p. 1442-1454) as hyperkinesia of the forelimbs.
This appears dependent on the period of repeated doses of levodopa and reportedly is similar to clinical dyskinesia. […] Bibbiani et al. (Bibbiani F. et al., “Serotonin 5-HT1A agonist improves motor complications in rodent and primate parkinsonian models”, Neurology, 2001, 57, p. 1829-1834) report that in Parkinson's disease model rats, along with repeated doses of levodopa, a shortening of the rotational behavior duration is observed and that this phenomenon resembles the wearing off phenomenon in clinical studies.
That is, they treated each group by repeated doses of levodopa and repeated dosage of the tested substance for about 2 weeks (Monday to Friday) and observed the hyperkinesia of the forelimbs and rotational behavior after levodopa administration. Note that the SUN N4057 was subcutaneously administered right before levodopa administration, the sarizotan was orally administered about 20 minutes before levodopa dosage in accordance with above-mentioned known reports (Bibbiani F. et al., Neurology, 2001, 57, p. 1829-1834), and the Example Compound 4 of Japanese Patent Publication No. 2005-298402A was subcutaneously administered about 30 minutes before levodopa dosage in accordance with the above-mentioned Japanese Patent Publication No. 2005-298402A. Further, for the solvent, for SUN N4057 and Example Compound 4 of Japanese Patent Publication No. 2005-298402A, physiological saline was used.
In the same way as Example 4, Parkinson's disease model rats were prepared and the rats treated by repeated doses of levodopa (twice a day, Monday to Friday) for 5 weeks and measured for hyperkinesia of the forelimbs and rotational behavior. Further, based on the results of the hyperkinesia of the forelimbs and rotational behavior duration, the rats were assigned to the groups so as to prevent any significant difference between them, then the effects of the tested substances on these behaviors resembling symptoms of advanced stage Parkinson's disease patients were compared and studied. […] Note that compound Ib (0.3, 1 mg/kg) and compound Ic (0.3, 1 mg/kg) were both intraperitoneally administered right before levodopa administration. For the solvent, physiological saline was used.

Setting [5] is: 3 μM dopamine = 100%, read-out: Agonist assay Emax.
The mark [6] stands for this setting: with 3 μM dopamine, read-out: Antagonist assay Emax.
[7] abbreviates: Dopamine D3, 0.1 μM dopamine = 100%, read-out: Agonist assay Emax.
[8] abbreviates: Dopamine D3, read-out: Agonist assay EC50.
The mark [9] stands for this setting: Dopamine D3, with 0.1 μM dopamine, read-out: Antagonist assay Emax.
The mark [10] stands for this setting: Dopamine D3, with 0.1 μM dopamine, read-out: Antagonist assay IC50.
[11] abbreviates: 1, 3 mg/kg s.c. repeated 2 weeks.
Where [12] appears, read: 0.03, 0.1 mg/kg s.c. repeated 2 weeks.

Molecules are shown by their SMILES. Entries after “also recorded” stand apart in the source; their conditions may differ. Structures can show the parent of a compound that is named as a salt. Where two headings read alike, the source gives them in different places. Where only a bound is given, the exact number is not on record here.

T2 sequence (P14416 whole entry): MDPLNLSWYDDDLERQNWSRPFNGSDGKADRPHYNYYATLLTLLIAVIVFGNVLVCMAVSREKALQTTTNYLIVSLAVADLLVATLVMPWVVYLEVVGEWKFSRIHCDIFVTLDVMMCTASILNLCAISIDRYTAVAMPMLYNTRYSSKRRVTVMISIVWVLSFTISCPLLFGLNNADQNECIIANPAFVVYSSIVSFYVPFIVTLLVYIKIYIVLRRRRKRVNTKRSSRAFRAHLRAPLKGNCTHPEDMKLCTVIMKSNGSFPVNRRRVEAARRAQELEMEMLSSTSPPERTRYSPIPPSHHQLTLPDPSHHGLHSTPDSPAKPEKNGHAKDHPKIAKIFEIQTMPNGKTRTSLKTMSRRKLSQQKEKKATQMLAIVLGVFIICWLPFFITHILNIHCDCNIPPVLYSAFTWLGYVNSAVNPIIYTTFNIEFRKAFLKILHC
T1 sequence (P35462 whole entry): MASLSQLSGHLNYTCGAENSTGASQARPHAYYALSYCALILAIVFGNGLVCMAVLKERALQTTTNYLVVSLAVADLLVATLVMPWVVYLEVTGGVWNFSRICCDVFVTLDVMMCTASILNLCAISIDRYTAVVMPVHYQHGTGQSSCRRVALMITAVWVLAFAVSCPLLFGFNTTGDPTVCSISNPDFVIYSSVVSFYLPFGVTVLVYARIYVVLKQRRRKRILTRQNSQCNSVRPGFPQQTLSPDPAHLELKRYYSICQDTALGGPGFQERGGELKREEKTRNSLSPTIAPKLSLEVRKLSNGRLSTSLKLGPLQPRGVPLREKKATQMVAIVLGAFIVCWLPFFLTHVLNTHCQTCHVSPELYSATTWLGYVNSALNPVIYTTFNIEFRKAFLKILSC

For orientation: Ki means a dissociation constant, usually derived from enzyme kinetics or from competition with a known ligand. For orientation: EC50 means the concentration at which the effect is half-maximal. One may read the Emax as the size of the effect at its maximum, as opposed to the concentration needed. By IC50 is commonly meant the concentration that gives 50% inhibition. For `Cl.Cl.O=c1[nH]c2cccc(C3CCCN(Cc4cncc(-c5ccc(F)cc5)c4)C3)c2o1` (stereo not shown) [7-(1-{[5-(4-fluorophenyl)pyridin-3-yl]methyl}piperidin-3-yl)-1,3-benzoxazol-2(3H)-one dihydrochloride], the inhibition constant (Ki) in assay [1] (Dopamine D3, read-out: Ki) was 9.07 nM. Also, the “binding affinity (in words)” value in assay [1] is listed as “comparatively strong binding affinity”. In addition, the figures for the concentration giving a half-maximal response (EC50) in assay [2] and in assay [3] (setting [8]) were over 500 nM and 1.4 nM, respectively. The Emax in assay [2] (setting [5]) was found to be 18%; in assay [2] (setting [6]), 75%; in assay [3] (setting [7]), 69%; in assay [3] (setting [9]) it was 22%. In addition, the IC50 is 72.9 nM in assay [2] (with 3 μM dopamine) and over 500 nM in assay [3] (setting [10]). Moreover, the “antagonist activity (in words)” value is given as “antagonist activity” in assay [2] and “no antagonist activity was exhibited” in assay [3]. Also, the “agonist activity (in words)” value in assay [3] is listed as “strong agonist activity”. The rotational behavior duration entry in assay [4] (3 mg/kg s.c. repeated 2 weeks) is given as “significant prolongation”. Also, in assay [4] (setting [11]), the “end of the rotational behavior” value is reported as “prolonged”. Moreover, the “start of rotational behavior” value in assay [4] (setting [11]) was “started earlier”. The “hyperkinesia of the forelimbs” value in assay [4] (1, 3 mg/kg s.c. repeated 2 weeks, vs physiological saline group, dihydrochloride) is reported as “no action was exhibited; also recorded: no significant difference”.

As for `O=C1c2ccccc2OC=C(Cl)N1CCCCN1CC=C(c2ccccn2)CC1` [SUN N4057, 3-chloro-4,5-dihydro-4-{4-[4-(2-pyridyl)-1,2,3,6-tetrahydropyridin-1-yl]butyl}-1,4-benzoxazepin-5-one.dihydrochloride-dihydrate], the Ki in assay [1] (Dopamine D3, read-out: Ki) came to 42.8 nM. Also, the EC50 is over 500 nM in assay [2] and 2.12 nM in assay [3] (setting [8]). For the same molecule, the Emax in assay [2] (setting [5]) was 27%; in assay [2] (setting [6]) it was 47%; in assay [3] (setting [7]), 77%; in assay [3] (setting [9]), 13%. Besides, the IC50 in assay [2] (with 3 μM dopamine) and in assay [3] (setting [10]) was over 500 nM throughout. In addition, the results for the “antagonist activity (in words)” value in assay [2] and in assay [3] were “does not have an antagonist action” and “no antagonist activity was exhibited”, respectively. In addition, the “agonist activity (in words)” value in assay [3] is on record as “strong agonist activity; also recorded: has an agonist action”. For the same molecule, the “hyperkinesia of the forelimbs” value is given as “significantly inhibited” in assay [4] (0.03 mg/kg s.c. repeated 2 weeks, 1 hour after levodopa dosage); “significantly inhibited” in assay [4] (0.1 mg/kg s.c. repeated 2 weeks, 1 and 2 hours after levodopa dosage). For the same molecule, the “end of the rotational behavior” value in assay [4] (setting [12]) is given as “significantly prolonged”. In addition, in assay [4] (setting [12]), the rotational behavior duration entry is on record as “significantly prolonged”.

Consider `Cl.Cl.Fc1ccc(-c2cncc(CNC[C@H]3CCc4ccccc4O3)c2)cc1` [Sarizotan, 1-[(2R)-3,4-dihydro-2H-chromen-2-yl]-N-{[5-(4-fluorophenyl)pyridin-3-yl]methyl}methanamine dihydrochloride], for which the inhibitory constant (Ki) in assay [1] is 3.48 nM. In addition, the “binding affinity (in words)” value in assay [1] is “comparatively strong binding affinity”. Further, the half-maximal effective concentration (EC50) in assay [2] and in assay [3] was over 500 nM each time. Moreover, the Emax is 2% in assay [2] (setting [5]), 101% in assay [2] (setting [6]), 14% in assay [3] (read-out: Agonist assay Emax) and 65% in assay [3] (read-out: Antagonist assay Emax). The half-inhibitory concentration (IC50) in assay [2] (with 3 μM dopamine) turned out to be 13.3 nM; in assay [3], 181 nM. The “antagonist activity (in words)” value in assay [2] is on record as “antagonist activity”; in assay [3] it was “weak antagonist activity”. Also, the “agonist activity (in words)” value in assay [3] is recorded as “did not exhibit an agonist activity”. In addition, in assay [4] (5 mg/kg oral repeated 2 weeks), the rotational behavior duration result is listed as “significant shortening”. Further, in assay [4] (5 mg/kg oral repeated 2 weeks, 1 hour after levodopa dosage, p=0.099), the “hyperkinesia of the forelimbs” value is “tendency of the hyperkinesia of the forelimbs to be inhibited”. Besides, the figures for the “rats that did not exhibit rotational behavior” value in assay [4] (30 minutes after levodopa dosage) and in assay [4] (1 hour after levodopa dosage) were “Six out of nine” and “three out of nine”, respectively. Also, in assay [4] (1 and 5 mg/kg oral repeated 2 weeks), the “start of rotational behavior due to levodopa dosage” value is recorded as “delay in the start of rotational behavior”. Also, the “hyperkinesia of the forelimbs, compared with the solvent group (Dunnett's test)” value in assay [4] (repeated oral administration, week 7 of levodopa) is “no significant difference”.

These data come from US20100204202A1, “DRUG FOR ALLEVIATING MOTOR COMPLICATIONS OR PSYCHIATRIC SYMPTOMS OF PARKINSON'S DISEASE” (Asubio Pharma Co., Ltd., priority 2007, published 2010).
